Reference: the NIST ThermoML archive (doi:10.1016/j.tca.2013.07.012)
Numbers after ± are expanded uncertainties.

Assay: xn = mol fraction of the nth substance listed
Conditions: 101 kPa, Liquid, Vibrating tube method

OCC(O)CO [glycerol] + O
mass density [kg/m3]
Conditions | 298.15 K | 308.15 K | 323.15 K | 333.15 K | 348.15 K
x1 = 0.00209 | – | 996.42 ± 0.11 | 990.39 ± 0.11 | 985.55 ± 0.11 | 977.18 ± 0.11
x1 = 0.00439 | 1002.17 ± 0.11 | 999.06 ± 0.11 | 992.99 ± 0.11 | 988.13 ± 0.11 | 979.74 ± 0.11
x1 = 0.0051 | 1002.98 ± 0.11 | 999.87 ± 0.11 | 993.77 ± 0.11 | 988.9 ± 0.11 | 980.52 ± 0.11
x1 = 0.00657 | 1004.67 ± 0.11 | 1001.52 ± 0.11 | 995.4 ± 0.11 | 990.52 ± 0.11 | 982.12 ± 0.11
x1 = 0.01072 | 1009.34 ± 0.11 | 1006.11 ± 0.11 | 999.9 ± 0.11 | 994.98 ± 0.11 | 986.55 ± 0.11
x1 = 0.01633 | 1015.48 ± 0.11 | 1012.13 ± 0.11 | 1005.81 ± 0.11 | 1000.85 ± 0.11 | 992.29 ± 0.11
x1 = 0.03504 | 1034.47 ± 0.11 | 1030.74 ± 0.11 | 1024.15 ± 0.11 | 1018.99 ± 0.11 | 1010.23 ± 0.11
x1 = 0.05086 | 1049.05 ± 0.12 | 1045.04 ± 0.12 | 1038.23 ± 0.12 | 1032.9 ± 0.12 | 1024.05 ± 0.12
x1 = 0.06775 | 1063.23 ± 0.12 | 1058.94 ± 0.12 | 1051.86 ± 0.12 | 1046.46 ± 0.12 | 1037.5 ± 0.12
x1 = 0.1127 | 1095.24 ± 0.14 | 1090.4 ± 0.14 | 1082.82 ± 0.14 | 1077.08 ± 0.14 | 1067.8 ± 0.14
x1 = 0.1559 | 1119.87 ± 0.15 | 1114.62 ± 0.15 | 1106.34 ± 0.15 | 1100.45 ± 0.14 | 1090.81 ± 0.14
x1 = 0.206 | 1142.86 ± 0.16 | 1137.3 ± 0.16 | 1128.58 ± 0.15 | 1122.53 ± 0.15 | 1112.88 ± 0.15
x1 = 0.256 | 1161.34 ± 0.16 | 1155.48 ± 0.16 | 1146.57 ± 0.16 | 1140.39 ± 0.16 | 1130.45 ± 0.15
x1 = 0.3311 | 1183 ± 0.17 | 1177.16 ± 0.17 | 1168.09 ± 0.16 | 1161.69 ± 0.16 | 1151.47 ± 0.16
x1 = 0.4012 | 1198.45 ± 0.17 | 1192.55 ± 0.17 | 1183.35 ± 0.17 | 1177 ± 0.16 | 1166.73 ± 0.16
x1 = 0.4907 | 1213.75 ± 0.18 | 1207.7 ± 0.17 | 1198.19 ± 0.17 | 1191.81 ± 0.17 | 1181.85 ± 0.17
x1 = 0.5828 | 1225.65 ± 0.17 | 1219.6 ± 0.17 | 1210.22 ± 0.17 | 1203.79 ± 0.17 | 1193.86 ± 0.17
x1 = 0.6857 | 1236.32 ± 0.18 | 1230.18 ± 0.18 | 1220.77 ± 0.18 | 1214.31 ± 0.17 | 1204.27 ± 0.17
x1 = 0.7494 | 1241.81 ± 0.19 | 1235.6 ± 0.18 | 1226.23 ± 0.18 | 1219.8 ± 0.18 | 1209.73 ± 0.18
x1 = 0.8101 | 1246.48 ± 0.19 | 1240.19 ± 0.19 | 1230.76 ± 0.19 | 1224.29 ± 0.19 | 1214.26 ± 0.18
x1 = 0.8528 | 1249.4 ± 0.2 | 1243.15 ± 0.2 | 1233.67 ± 0.19 | 1227.21 ± 0.19 | 1217.21 ± 0.19
x1 = 0.882 | 1251.36 ± 0.2 | 1245.07 ± 0.2 | 1235.56 ± 0.2 | 1229.08 ± 0.19 | 1219.1 ± 0.19
x1 = 0.9143 | 1253.31 ± 0.21 | 1247.06 ± 0.2 | 1237.53 ± 0.2 | 1231.07 ± 0.2 | 1221.08 ± 0.19
x1 = 0.9408 | 1254.8 ± 0.21 | 1248.55 ± 0.21 | 1239.01 ± 0.2 | 1232.59 ± 0.2 | 1222.63 ± 0.2
x1 = 0.9578 | 1255.73 ± 0.21 | 1249.47 ± 0.21 | 1239.93 ± 0.21 | 1233.52 ± 0.2 | 1223.59 ± 0.2
x1 = 0.9792 | 1256.89 ± 0.21 | 1250.63 ± 0.21 | 1241.1 ± 0.21 | 1234.68 ± 0.21 | 1224.76 ± 0.2
x1 = 0.9895 | 1257.41 ± 0.22 | 1251.16 ± 0.21 | 1241.61 ± 0.21 | 1235.2 ± 0.21 | 1225.28 ± 0.2
x1 = 1 | 1257.91 ± 0.22 | 1251.66 ± 0.22 | 1242.11 ± 0.21 | 1235.71 ± 0.21 | 1225.79 ± 0.21
